Assay results as given in PubChem BioAssay (NCI).
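Five concentrations, 48 hours, 96-well plates. Definition used: TGI = concentration required for complete inhibition of growth.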

Legend:
Assay in all cases: inhibition of tumour cell growth, NCI panel, 48 h
786-0 renal = test system: 786-0 renal
A498 renal = test system: A498 renal
A549 NSCLC = test system: A549 NSCLC
ACHN renal = test system: ACHN renal
BT-549 breast = test system: BT-549 breast
CAKI-1 renal = test system: CAKI-1 renal
CCRF-CEM leukemia = test system: CCRF-CEM leukemia
COLO 205 colon = test system: COLO 205 colon
DU-145 prostate = test system: DU-145 prostate
EKVX NSCLC = test system: EKVX NSCLC
HCC-2998 colon = test system: HCC-2998 colon
HCT-116 colon = test system: HCT-116 colon
HCT-15 colon = test system: HCT-15 colon
HL-60(TB) leukemia = test system: HL-60(TB) leukemia
HOP-62 NSCLC = test system: HOP-62 NSCLC
HOP-92 NSCLC = test system: HOP-92 NSCLC
HS 578T breast = test system: HS 578T breast
HT29 colon = test system: HT29 colon
IGROV1 ovarian = test system: IGROV1 ovarian
K-562 leukemia = test system: K-562 leukemia
KM12 colon = test system: KM12 colon
LOX IMVI melanoma = test system: LOX IMVI melanoma
M14 melanoma = test system: M14 melanoma
MALME-3M melanoma = test system: MALME-3M melanoma
MCF7 breast = test system: MCF7 breast
MDA-MB-231 breast = test system: MDA-MB-231 breast
MDA-MB-435 = test system: MDA-MB-435
MDA-N = test system: MDA-N
MOLT-4 leukemia = test system: MOLT-4 leukemia
NCI-H226 lung = test system: NCI-H226 lung
NCI-H23 lung = test system: NCI-H23 lung
NCI-H460 lung = test system: NCI-H460 lung
NCI-H522 lung = test system: NCI-H522 lung
NCI/ADR-RES ovarian = test system: NCI/ADR-RES ovarian
OVCAR-3 ovarian = test system: OVCAR-3 ovarian
OVCAR-4 ovarian = test system: OVCAR-4 ovarian
OVCAR-5 ovarian = test system: OVCAR-5 ovarian
OVCAR-8 ovarian = test system: OVCAR-8 ovarian
PC-3 prostate = test system: PC-3 prostate
RPMI-8226 leukemia = test system: RPMI-8226 leukemia
RXF 393 renal = test system: RXF 393 renal
SF-268 CNS = test system: SF-268 CNS
SF-295 CNS = test system: SF-295 CNS
SF-539 CNS = test system: SF-539 CNS
SK-MEL-2 melanoma = test system: SK-MEL-2 melanoma
SK-MEL-28 melanoma = test system: SK-MEL-28 melanoma
SK-MEL-5 melanoma = test system: SK-MEL-5 melanoma
SK-OV-3 ovarian = test system: SK-OV-3 ovarian
SN12C renal = test system: SN12C renal
SNB-19 CNS = test system: SNB-19 CNS
SNB-75 CNS = test system: SNB-75 CNS
SR leukemia = test system: SR leukemia
SW-620 colon = test system: SW-620 colon
T-47D breast = test system: T-47D breast
TK-10 renal = test system: TK-10 renal
U251 CNS = test system: U251 CNS
UACC-257 melanoma = test system: UACC-257 melanoma
UACC-62 melanoma = test system: UACC-62 melanoma
UO-31 renal = test system: UO-31 renal

CN(C)P(=O)(Oc1ccc(CC(NC(=O)OCc2ccccc2)C(=O)OCc2ccccc2)cc1)N(C)C (stereo not given)
TGI (786-0 renal): 17.5 µM
TGI (A498 renal): 38.1 µM
TGI (A549 NSCLC): 38.2 µM
TGI (ACHN renal): 33.9 µM
TGI (BT-549 breast): 32.4 µM
TGI (CAKI-1 renal): 32.8 µM
TGI (CCRF-CEM leukemia): 7.56 µM
TGI (COLO 205 colon): 42.8 µM
TGI (DU-145 prostate): 29.2 µM
TGI (EKVX NSCLC): 32.2 µM
TGI (HCC-2998 colon): 37.8 µM
TGI (HCT-116 colon): 31.3 µM
TGI (HCT-15 colon): 33 µM
TGI (HL-60(TB) leukemia): 32.9 µM
TGI (HOP-62 NSCLC): 31.7 µM
TGI (HOP-92 NSCLC): 34.9 µM
TGI (HS 578T breast): 67.5 µM
TGI (HT29 colon): 24.6 µM
TGI (IGROV1 ovarian): 32.9 µM
TGI (K-562 leukemia): 64.1 µM
TGI (KM12 colon): 40.3 µM
TGI (LOX IMVI melanoma): 34.5 µM
TGI (M14 melanoma): 32 µM
TGI (MALME-3M melanoma): 32.7 µM
TGI (MCF7 breast): 31.6 µM
TGI (MDA-MB-231 breast): 34.3 µM
TGI (MDA-MB-435): 25.7 µM
TGI (MDA-N): 34 µM
TGI (MOLT-4 leukemia): 13.7 µM
TGI (NCI-H226 lung): 52.8 µM
TGI (NCI-H23 lung): 28.1 µM
TGI (NCI-H460 lung): 48.8 µM
TGI (NCI-H522 lung): 30.9 µM
TGI (NCI/ADR-RES ovarian): 36.2 µM
TGI (OVCAR-3 ovarian): 11.4 µM
TGI (OVCAR-4 ovarian): 39.1 µM
TGI (OVCAR-5 ovarian): 38.6 µM
TGI (OVCAR-8 ovarian): 33.2 µM
TGI (PC-3 prostate): 29.9 µM
TGI (RPMI-8226 leukemia): 15.2 µM
TGI (RXF 393 renal): 32.7 µM
TGI (SF-268 CNS): 27.8 µM
TGI (SF-295 CNS): 34.5 µM
TGI (SF-539 CNS): 39.7 µM
TGI (SK-MEL-2 melanoma): 31.5 µM
TGI (SK-MEL-28 melanoma): 34.4 µM
TGI (SK-MEL-5 melanoma): 38.1 µM
TGI (SK-OV-3 ovarian): 33.2 µM
TGI (SN12C renal): 31.8 µM
TGI (SNB-19 CNS): 38.6 µM
TGI (SNB-75 CNS): 33.3 µM
TGI (SR leukemia): 24.6 µM
TGI (SW-620 colon): 45.8 µM
TGI (T-47D breast): 52.3 µM
TGI (TK-10 renal): 47 µM
TGI (U251 CNS): 28.2 µM
TGI (UACC-257 melanoma): 47.5 µM
TGI (UACC-62 melanoma): 31.5 µM
TGI (UO-31 renal): 33.3 µM

CCOC(=O)c1cnc2n(c1=N)[C@H]1CCCC[C@@H]1N2
TGI (786-0 renal): > 100 µM
TGI (A498 renal): > 100 µM
TGI (A549 NSCLC): > 100 µM
TGI (ACHN renal): > 100 µM
TGI (BT-549 breast): > 100 µM
TGI (CAKI-1 renal): > 100 µM
TGI (COLO 205 colon): > 100 µM
TGI (DU-145 prostate): > 100 µM
TGI (EKVX NSCLC): > 100 µM
TGI (HCC-2998 colon): > 100 µM
TGI (HCT-116 colon): > 100 µM
TGI (HCT-15 colon): > 100 µM
TGI (HL-60(TB) leukemia): > 100 µM
TGI (HOP-92 NSCLC): > 100 µM
TGI (HS 578T breast): > 100 µM
TGI (HT29 colon): > 100 µM
TGI (IGROV1 ovarian): > 100 µM
TGI (K-562 leukemia): > 100 µM
TGI (KM12 colon): > 100 µM
TGI (LOX IMVI melanoma): > 100 µM
TGI (M14 melanoma): > 100 µM
TGI (MALME-3M melanoma): > 100 µM
TGI (MCF7 breast): > 100 µM
TGI (MDA-MB-231 breast): > 100 µM
TGI (MDA-MB-435): > 100 µM
TGI (MDA-N): > 100 µM
TGI (MOLT-4 leukemia): > 100 µM
TGI (NCI-H226 lung): > 100 µM
TGI (NCI-H23 lung): > 100 µM
TGI (NCI-H460 lung): > 100 µM
TGI (NCI-H522 lung): > 100 µM
TGI (NCI/ADR-RES ovarian): > 100 µM
TGI (OVCAR-3 ovarian): > 100 µM
TGI (OVCAR-4 ovarian): > 100 µM
TGI (OVCAR-5 ovarian): > 100 µM
TGI (OVCAR-8 ovarian): > 100 µM
TGI (PC-3 prostate): > 100 µM
TGI (RPMI-8226 leukemia): > 100 µM
TGI (RXF 393 renal): > 100 µM
TGI (SF-268 CNS): > 100 µM
TGI (SF-295 CNS): > 100 µM
TGI (SF-539 CNS): > 100 µM
TGI (SK-MEL-2 melanoma): > 100 µM
TGI (SK-MEL-28 melanoma): > 100 µM
TGI (SK-MEL-5 melanoma): > 100 µM
TGI (SK-OV-3 ovarian): > 100 µM
TGI (SN12C renal): > 100 µM
TGI (SNB-19 CNS): > 100 µM
TGI (SNB-75 CNS): > 100 µM
TGI (SR leukemia): > 100 µM
TGI (SW-620 colon): > 100 µM
TGI (T-47D breast): > 100 µM
TGI (U251 CNS): > 100 µM
TGI (UACC-257 melanoma): > 100 µM
TGI (UACC-62 melanoma): > 100 µM
TGI (UO-31 renal): > 100 µM
